Assay results reported in ChEMBL document CHEMBL1614631, “Comparative evaluation of oral systemic exposure of 56 xenobiotics in rat, dog, monkey and human” (Xenobiotica, 2005).

Legend:
[1] = Dose normalised AUC in dog after po administration; conditions: in vivo
[2] = Dose normalised AUC in rat after po administration; conditions: in vivo
[3] = Dose normalised AUC in human after po administration; conditions: in vivo
[4] = Dose normalised AUC in monkey after po administration; conditions: macaca, in vivo

SMILES | DNAUC [1] [kg·min/L] | DNAUC [2] [kg·min/L] | DNAUC [3] [kg·min/L] | DNAUC [4] [kg·min/L]
Cn1cc(/C=C2/C(=O)N3C(C(=O)O)=CS[C@H]23)nn1 | 3.33 | 0.29 | 5 | 0.45
CC1=NC(=O)C(CCN(C(C)C)C(C)C)(c2ccccc2)C2CCCCN12 (stereo not drawn) [ACTISOMIDE] | 71.7 | 14.49 | 51.51 | 26.46
CC[C@H]1OC(=O)[C@H](C)[C@@H](O[C@H]2C[C@@](C)(OC)[C@@H](O)[C@H](C)O2)[C@H](C)[C@@H](O[C@@H]2O[C@H](C)C[C@H](N(C)C)[C@H]2O)[C@](C)(O)C[C@@H](C)CN(C)[C@H](C)[C@@H](O)[C@]1(C)O [AZITHROMYCIN] | 140.4 | 11.42 | 33.15 | 17.52
C1=C(c2ccccc2)CCN(C[C@@H]2CCC=C(c3ccccc3)C2)C1 [CI-1007] | 1.46 | 2.65 | 2.63 | 2.34
O=C(O)c1cn(C2CC2)c2cc(N3CCNCC3)c(F)cc2c1=O [CIPROFLOXACIN] | 32.75 | 9.36 | 77.03 | 85.2
CN(C)CCCC1(c2ccc(F)cc2)OCc2cc(C#N)ccc21 (stereo not drawn) [CITALOPRAM] | 8.75 | 5.88 | 200 | 9.85
O=C1CN=C(c2ccccc2Cl)c2cc([N+](=O)[O-])ccc2N1 [CLONAZEPAM] | 24 | 3.47 | 590 | 36.8
O=c1ccc2ccccc2o1 [COUMARIN] | 40.38 | 37.5 | 2.03 | 31.8
CCN[C@@H](C)Cc1cccc(C(F)(F)F)c1 [DEXFENFLURAMINE] | 6.72 | 7.2 | 80 | 4.38
CC(C)N(CCC(C(N)=O)(c1ccccc1)c1ccccn1)C(C)C (stereo not drawn) [DISOPYRAMIDE] | 101.6 | 6.07 | 550.48 | 2.2
CC[C@H]1OC(=O)[C@H](C)[C@@H](O[C@H]2C[C@@](C)(OC)[C@@H](O)[C@H](C)O2)[C@H](C)[C@@H](O[C@@H]2O[C@H](C)C[C@H](N(C)C)[C@H]2O)[C@](C)(O)C[C@@H](C)C(=O)[C@H](C)[C@@H](O)[C@]1(C)O [ERYTHROMYCIN] | 31.38 | 1.88 | 36.8 | 1.32
C#C[C@]1(O)CC[C@H]2[C@@H]3CCc4cc(O)ccc4[C@H]3CC[C@@]21C [ETHINYL ESTRADIOL] | 4.5 | 0.46 | 75.45 | 0.68
CCC1(C)CC(=O)NC1=O (stereo not drawn) [ETHOSUXIMIDE] | 2166.68 | 285.71 | 6666.67 | 2792.79
COc1ccc(C(C)C)cc1CN[C@H]1C2CCN(CC2)[C@H]1C(c1ccccc1)c1ccccc1 [EZLOPITANT] | 10.82 | 2.36 | 125 | 0.6
O=C(O)C(Cl)c1ccc(C2CCCCC2)c(Cl)c1 (stereo not drawn) [FENCLORAC] | 2454.09 | 630.2 | 2651.33 | 491.65
CN1CCN(c2c(F)cc3c(=O)c(C(=O)O)cn(CCF)c3c2F)CC1 [FLEROXACIN] | 618 | 152.4 | 432.41 | 133.54
CC1(C)O[C@@H]2C[C@H]3[C@@H]4C[C@H](F)C5=CC(=O)C=C[C@]5(C)[C@H]4[C@@H](O)C[C@]3(C)[C@]2(C(=O)CO)O1 [FLUNISOLIDE] | 63.58 | 107.25 | 16.42 | 2.1
C[C@H](C(=O)O)c1ccc2oc(-c3ccc(F)cc3)nc2c1 [FLUNOXAPROFEN] | 960.78 | 14620.68 | 2794 | 1464.8
CC(C(=O)O)c1ccc(-c2ccccc2)c(F)c1 (stereo not drawn) [FLURBIPROFEN] | 4718.5 | 1042.5 | 2900.56 | 2364.5
CC(C)n1c(/C=C/C(O)CC(O)CC(=O)O)c(-c2ccc(F)cc2)c2ccccc21 (stereo not drawn) [FLUVASTATIN] | 82.11 | 195 | 49.3 | 5.37
NS(=O)(=O)c1cc(C(=O)O)c(NCc2ccco2)cc1Cl [FUROSEMIDE] | 57.84 | 44.73 | 184.62 | 43.2

SMILES | DNAUC [1] [kg·min/L] | DNAUC [2] [kg·min/L] | DNAUC [3] [kg·min/L] | DNAUC [4] [kg·min/L]
NCC1(CC(=O)O)CCCCC1 [GABAPENTIN] | 290.4 | 87.72 | 369.82 | 156.24
CC(=O)[C@H]1CC[C@H]2[C@@H]3CC[C@H]4C[C@](C)(O)CC[C@]4(C)[C@H]3CC[C@]12C [GANAXOLONE] | 77.25 | 0.76 | 5.65 | 1.39
CC(=O)NCCOC(=O)C(Oc1cccc(C(F)(F)F)c1)c1ccc(Cl)cc1 (stereo not drawn) [HALOFENATE] | 390.13 | 9183.98 | 15037.59 | 3918.28
CCCCCNC(=O)c1coc([C@H]2[C@@H](Cc3ccccc3CCC(=O)O)[C@@H]3CC[C@H]2O3)n1 [IFETROBAN] | 9.48 | 2.86 | 77.32 | 13.02
CC(C)(C)NC(=O)[C@@H]1CN(Cc2cccnc2)CCN1C[C@@H](O)C[C@@H](Cc1ccccc1)C(=O)N[C@H]1c2ccccc2C[C@H]1O.O [INDINAVIR] | 46.1 | 3.13 | 52.98 | 5.34
COc1ccc2c(c1)c(CC(=O)O)c(C)n2C(=O)c1ccc(Cl)cc1 [INDOMETHACIN] | 793.3 | 2056 | 488.62 | 133.1
O=C(c1ccccc1)c1ccc2n1CCC2C(=O)O (stereo not drawn) [KETOROLAC] | 1352.94 | 285 | 1256.47 | 1912.26
CCN(CC)CC(=O)Nc1c(C)cccc1C [LIDOCAINE] | 8.38 | 1.64 | 38.04 | 3.79
Cc1cnc(NC(=O)C2=C(O)c3ccccc3S(=O)(=O)N2C)s1 [MELOXICAM] | 6870 | 4998 | 6655.81 | 2856
COCCc1ccc(OCC(O)CNC(C)C)cc1 (stereo not drawn) [METOPROLOL] | 15.8 | 58 | 25.33 | 8.33
Cc1ncc2n1-c1ccc(Cl)cc1C(c1ccccc1F)=NC2 [MIDAZOLAM] | 23.79 | 1.64 | 66.67 | 4.17
CCCCN1C[C@H](O)[C@@H](O)[C@H](O)[C@H]1CO [MIGLUSTAT] | 204 | 16.6 | 358.71 | 166.88
COc1c(N2C[C@@H]3CCCN[C@@H]3C2)c(F)cc2c(=O)c(C(=O)O)cn(C3CC3)c12 [MOXIFLOXACIN] | 245.95 | 18.35 | 372.73 | 45.09
COC(=O)C1=C(C)NC(C)=C(C(=O)OCCN(C)Cc2ccccc2)C1c1cccc([N+](=O)[O-])c1 (stereo not drawn) [NICARDIPINE] | 2 | 1.1 | 10 | 3.84
COC(=O)C1=C(C)NC(C)=C(C(=O)OCC(C)C)C1c1ccccc1[N+](=O)[O-] (stereo not drawn) [NISOLDIPINE] | 2.64 | 0.49 | 1.2 | 0.84
CS(=O)(=O)Nc1ccc(F)c([C@@H](O)CN)c1 [NS-49] | 382.2 | 33.3 | 306 | 165.6
CC1COc2c(N3CCN(C)CC3)c(F)cc3c(=O)c(C(=O)O)cn1c23 (stereo not drawn) [OFLOXACIN] | 407.7 | 32.85 | 297.93 | 218.1
O=C(O)CCc1nc(-c2ccccc2)c(-c2ccccc2)o1 [OXAPROZIN] | 3.2 | 0.04 | 9.07 | 2.85
CCn1cc(C(=O)O)c(=O)c2cc(F)c(N3CCN(C)CC3)cc21 [PEFLOXACIN] | 120 | 67.2 | 505.26 | 259.2
Cc1nc(=O)c(C#N)c(NCc2cccnc2)[nH]1 [PELRINONE] | 84 | 20 | 152.38 | 39.2
CC(C)NCC(O)COc1cccc2ccccc12 (stereo not drawn) [PROPRANOLOL] | 8.32 | 37.8 | 17.33 | 1.32
